According to US10004711B2, “Methods and compositions comprising 10-hydroxy-2-decenoic acid” (DSM IP ASSETS B.V., priority 2014, dated 2018):

Key:
[1] = system: 19-20 month-old male rats; assay: Elevated plus-maze, rats fed QBA alone or QBA+DHA; type: in vivo, rat; settings: QBA 0, DHA 0.07% weight of diet
Protocol: Rats were fed QBA and subjected to an elevated plus-maze. The elevated plus-maze was elevated ˜85 cm above the floor and consisted of two open and two closed arms of the same size (50×10 cm). The closed arms were surrounded by walls 40 cm high, and the arms were constructed of black acrylic slabs that radiated from a central platform (10×10 cm) to form a plus sign. Each rat was placed in the central platform facing one of the open arms, and its behavior was recorded during a 5-min testing period with video capture software. More time spent in the open arms is an indication of reduced anxiety-like state. Rats were tested at 18 months old (N=11-13 per group).
The dose-response characteristics of 10-Hydroxy-2-decenoic acid's (QBA's) in combination with DHA for potential brain health benefits during aging were assessed for mood in 19-20 month-old male rats (N=11-14 per group). Rats were fed QBA alone or QBA+DHA and subjected to an elevated plus-maze.

[2] = Body weight of aged male rats fed QBA and/or DHA (Example 8); type: in vivo, rat; settings: DHA 0.07% weight of diet
Protocol: Aged male rats were fed 10-Hydroxy-2-decenoic acid (QBA) for approximately […] from 12-months to 20-months of age and the weight of rats was recorded.

[3] = Weight after Barnes maze psychological stress (Example 9); type: in vivo, rat; settings: for % Change (Weight after Barnes maze): DHA 0.07% weight of diet
Protocol: Aged male rats were fed 10-Hydroxy-2-decenoic acid (QBA) for approximately […] from 12-months to 20-months of age and the weight of rats was recorded (N=11-14 per group). During the last month of QBA feeding animals were subjected to the psychological stress of the Barnes maze.

[4] = Body weight of aged male rats fed QBA and/or DHA (Example 8); type: in vivo, rat; settings: DHA 0.07% weight of diet; remark: listed apart in the source
[5] = system: RAW264.7 mouse macrophage cell line; assay: IL-1β levels after LPS stimulation; type: cell-based; settings: Dexamethasone, concentration not given; LPS 100 ng/mL; 24 h
Protocol: (§1) Cultures of the RAW264.7 mouse macrophage cell line were pre-treated with 10-Hydroxy-2-decenoic acid (QBA) for 1 hour prior to stimulation with lipopolysaccharide (LPS, 100 ng/mL). After 24 hours of incubation, interleukin […] (IL-1β) and tumor necrosis factor-α (TNFα) levels were determined by Luminex technology and cell numbers were measured using Alamar Blue. Results are given as a ratio of cytokine concentration/cell number.

[6] = system: RAW264.7 mouse macrophage cell line; assay: TNFα levels after LPS stimulation; type: cell-based; settings: Dexamethasone, concentration not given; LPS 100 ng/mL; 24 h
Protocol: as §1

Compound: CC/C=C\C/C=C\C/C=C\C/C=C\C/C=C\C/C=C\CCC(=O)O [DHA, all-cis-docosa-4,7,10,13,16,19-hexaenoic acid]
- Time (s) in Open Arm [1]: 32.4 s
- Avg Wt ([2]; study day 0): 552.9 g
- Avg Wt ([2]; study day 4): 568.8 g
- Avg Wt ([2]; study day 11): 579.8 g
- Avg Wt ([2]; study day 18): 592.4 g
- Avg Wt ([2]; study day 25): 594.4 g
- Avg Wt ([2]; study day 32): 600.5 g
- Avg Wt ([2]; study day 39): 605.1 g
- Avg Wt ([2]; study day 46): 607.2 g
- Avg Wt ([2]; study day 53): 610.6 g
- Avg Wt ([2]; study day 67): 616.2 g
- Avg Wt ([2]; study day 74): 617.6 g
- Avg Wt ([2]; study day 81): 619.7 g
- Avg Wt ([2]; study day 88): 623.2 g
- Avg Wt ([2]; study day 95): 624.8 g
- Avg Wt ([2]; study day 102): 629.4 g
- Avg Wt ([2]; study day 109): 632.9 g
- Avg Wt ([2]; study day 116): 636.3 g
- Avg Wt ([2]; study day 123): 631.2 g
- Avg Wt ([2]; study day 137): 633.1 g
- Avg Wt ([2]; study day 151): 634.6 g
- % Change (Weight after Barnes maze) ([3]; behavior stress day 7): −0.76%
- % Change (Weight after Barnes maze) ([3]; behavior stress day 14): −0.57%
- % Change (Weight after Barnes maze) ([3]; behavior stress day 21): −0.88%
- % Change (Weight after Barnes maze) ([3]; behavior stress day 28): −0.56%
- % Change (Weight after Barnes maze) ([3]; behavior stress day 35): −0.23%
- weight loss associated with the psychological stress ([3]; summary of Table 15): did not produce the same results
- Avg Wt ([4]; study day 60): 614.6 g
- Avg Wt ([4]; study day 130): 635.2 g
- Avg Wt ([4]; study day 144): 632.5 g

Compound: C[C@@H]1C[C@H]2[C@@H]3CCC4=CC(=O)C=C[C@]4(C)[C@@]3(F)[C@@H](O)C[C@]2(C)[C@@]1(O)C(=O)CO [Dexamethasone, reference compound]
- IL-1β (pg/mL)/Cell Numbers [5]: 0.0013 (pg/mL)/Cell Numbers
- TNFα (pg/mL)/Cell Numbers [6]: 0.153 (pg/mL)/Cell Numbers
